Source: PubChem BioAssay AID1963977 (Molecular Pharmacology Branch, DTP, NCI, 2024)
Blank lines part the entries; values can stand above or below the molecule they belong to.

System: 624824-186-R-J3-PDC multicell spheroids, viability
Assay: Anticancer human tumor 624824-186-R-J3-PDC patient-derived colon adenocarcinoma cell line growth inhibition [PI3K]
Conditions: for viability, T/C: stronger effect = lower value
Summary of the method: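 High-throughput combination screen: PI3K inhibitors crossed with targeted small molecules on complex spheroids of tumor cells, HUVEC and MSCs at 37 degrees C, 5% CO2. Top concentration was at or near clinical Cmax (otherwise 10 microM), with half-log decrements.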

[1] = curve of first compound, second compound 0.0316 µM
[2] = curve of first compound, second compound 0.1 µM
[3] = curve of first compound, second compound 0.316 µM
[4] = curve of first compound, second compound 1 µM
[5] = second compound 0.0316 µM, first compound 0.0316 µM
[6] = second compound 0.0316 µM, first compound 0.1 µM
[7] = second compound 0.0316 µM, first compound 0.316 µM
[8] = second compound 0.0316 µM, first compound 1 µM
[9] = second compound 0.1 µM, first compound 0.0316 µM
[10] = second compound 0.1 µM, first compound 0.1 µM
[11] = second compound 0.1 µM, first compound 0.316 µM
[12] = second compound 0.1 µM, first compound 1 µM
[13] = second compound 0.316 µM, first compound 0.0316 µM
[14] = second compound 0.316 µM, first compound 0.1 µM
[15] = second compound 0.316 µM, first compound 0.316 µM
[16] = second compound 0.316 µM, first compound 1 µM
[17] = second compound 1 µM, first compound 0.0316 µM
[18] = second compound 1 µM, first compound 0.1 µM
[19] = second compound 1 µM, first compound 0.316 µM
[20] = second compound 1 µM, first compound 1 µM
[21] = curve of first compound, second compound 3.16 µM
[22] = curve of first compound, second compound 10 µM
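Also: spheroids exposed to agents for seven days before luminescence read.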
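For viability, T/C in this document: luminescent signal used as a stand-in for spheroid viability; percent viability relative to DMSO vehicle control wells taken as 100%.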

IC50 (curve of first compound, second compound 0.00316 µM): 5180 nM
IC50 (curve of first compound, second compound 0.01 µM): 5160 nM
IC50 [1]: 5280 nM
IC50 [2]: 4790 nM
IC50 [3]: 4540 nM
IC50 [4]: 3180 nM
SMILES: CC1(C)CCC(Nc2ncc(C(F)(F)F)c(-c3c[nH]c4c(P(C)(C)=O)c(C#N)ccc34)n2)CN1 (stereo not drawn) + CC(Nc1ccc2c(c1)OCCn1cc(N3C(=O)OCC3C(F)F)nc1-2)C(N)=O
viability, T/C (second compound 0.00316 µM, first compound 0.0316 µM): 106%
viability, T/C (second compound 0.00316 µM, first compound 0.1 µM): 90.5%
viability, T/C (second compound 0.00316 µM, first compound 0.316 µM): 89.4%
viability, T/C (second compound 0.00316 µM, first compound 1 µM): 89.6%
viability, T/C (second compound 0.00316 µM, first compound 3.16 µM): 85.5%
viability, T/C (second compound 0.00316 µM, first compound 10 µM): 2.71%
viability, T/C (second compound 0.01 µM, first compound 0.0316 µM): 104%
viability, T/C (second compound 0.01 µM, first compound 0.1 µM): 95.6%
viability, T/C (second compound 0.01 µM, first compound 0.316 µM): 92.7%
viability, T/C (second compound 0.01 µM, first compound 1 µM): 96.3%
viability, T/C (second compound 0.01 µM, first compound 3.16 µM): 84.2%
viability, T/C (second compound 0.01 µM, first compound 10 µM): 3.61%
viability, T/C [5]: 99.4%
viability, T/C [6]: 88.7%
viability, T/C [7]: 89.4%
viability, T/C [8]: 93.5%
viability, T/C (second compound 0.0316 µM, first compound 3.16 µM): 87.8%
viability, T/C (second compound 0.0316 µM, first compound 10 µM): 3.03%
viability, T/C [9]: 90%
viability, T/C [10]: 85.5%
viability, T/C [11]: 89.8%
viability, T/C [12]: 85.7%
viability, T/C (second compound 0.1 µM, first compound 3.16 µM): 76.5%
viability, T/C (second compound 0.1 µM, first compound 10 µM): 2.82%
viability, T/C [13]: 81.8%
viability, T/C [14]: 64.8%
viability, T/C [15]: 68.2%
viability, T/C [16]: 76.5%
viability, T/C (second compound 0.316 µM, first compound 3.16 µM): 71.8%
viability, T/C (second compound 0.316 µM, first compound 10 µM): 2.32%
viability, T/C [17]: 54.9%
viability, T/C [18]: 56.1%
viability, T/C [19]: 57%
viability, T/C [20]: 53.4%
viability, T/C (second compound 1 µM, first compound 3.16 µM): 50.5%
viability, T/C (second compound 1 µM, first compound 10 µM): 2.4%

IC50 [1]: > 1000 nM
IC50 [2]: > 1000 nM
IC50 [3]: > 1000 nM
IC50 [4]: > 1000 nM
IC50 [21]: > 1000 nM
IC50 [22]: > 1000 nM
SMILES: CCN1CCN(Cc2ccc(Nc3ncc(F)c(-c4cc(F)c5nc(C)n(C(C)C)c5c4)n3)nc2)CC1 + CC(Nc1ncnc2nc[nH]c12)c1cc2cccc(Cl)c2c(=O)n1-c1ccccc1
viability, T/C (second compound 0.0316 µM, first compound 0.00316 µM): 101%
viability, T/C (second compound 0.0316 µM, first compound 0.01 µM): 94%
viability, T/C [5]: 101%
viability, T/C [6]: 110%
viability, T/C [7]: 99%
viability, T/C [8]: 109%
viability, T/C (second compound 0.1 µM, first compound 0.00316 µM): 103%
viability, T/C (second compound 0.1 µM, first compound 0.01 µM): 108%
viability, T/C [9]: 97.2%
viability, T/C [10]: 106%
viability, T/C [11]: 111%
viability, T/C [12]: 97.6%
viability, T/C (second compound 0.316 µM, first compound 0.00316 µM): 105%
viability, T/C (second compound 0.316 µM, first compound 0.01 µM): 110%
viability, T/C [13]: 96.4%
viability, T/C [14]: 111%
viability, T/C [15]: 99.8%
viability, T/C [16]: 99.7%
viability, T/C (second compound 1 µM, first compound 0.00316 µM): 93.1%
viability, T/C (second compound 1 µM, first compound 0.01 µM): 103%
viability, T/C [17]: 104%
viability, T/C [18]: 94.3%
viability, T/C [19]: 92.2%
viability, T/C [20]: 101%
viability, T/C (second compound 3.16 µM, first compound 0.00316 µM): 106%
viability, T/C (second compound 3.16 µM, first compound 0.01 µM): 100%
viability, T/C (second compound 3.16 µM, first compound 0.0316 µM): 102%
viability, T/C (second compound 3.16 µM, first compound 0.1 µM): 90.8%
viability, T/C (second compound 3.16 µM, first compound 0.316 µM): 88.1%
viability, T/C (second compound 3.16 µM, first compound 1 µM): 81.8%
viability, T/C (second compound 10 µM, first compound 0.00316 µM): 96.6%
viability, T/C (second compound 10 µM, first compound 0.01 µM): 96.7%
viability, T/C (second compound 10 µM, first compound 0.0316 µM): 87%
viability, T/C (second compound 10 µM, first compound 0.1 µM): 78.1%
viability, T/C (second compound 10 µM, first compound 0.316 µM): 65.3%
viability, T/C (second compound 10 µM, first compound 1 µM): 67%

IC50 (curve of compound): 5.64 µM [middle of 4 runs]
SMILES: CC1(C)CCC(Nc2ncc(C(F)(F)F)c(-c3c[nH]c4c(P(C)(C)=O)c(C#N)ccc34)n2)CN1 (stereo not drawn)
viability, T/C (compound 0.0316 µM): 106% [middle of 4 runs]
viability, T/C (compound 0.1 µM): 87.3% [middle of 4 runs]
viability, T/C (compound 0.316 µM): 96.5% [middle of 4 runs]
viability, T/C (compound 1 µM): 96.9% [middle of 4 runs]
viability, T/C (compound 3.16 µM): 100% [middle of 4 runs]
viability, T/C (compound 10 µM): 4.6% [middle of 4 runs]

IC50 [1]: 2020 nM
IC50 [2]: 1540 nM
IC50 [3]: 1680 nM
IC50 [4]: 1280 nM
IC50 [21]: 688 nM
IC50 [22]: 297 nM
SMILES: Cn1cnc2c(F)c(Nc3ccc(Br)cc3Cl)c(C(=O)NOCCO)cc21 + CC(Nc1ncnc2nc[nH]c12)c1cc2cccc(Cl)c2c(=O)n1-c1ccccc1
viability, T/C (second compound 0.0316 µM, first compound 0.00949 µM): 102%
viability, T/C (second compound 0.0316 µM, first compound 0.03 µM): 87.3%
viability, T/C (second compound 0.0316 µM, first compound 0.0949 µM): 103%
viability, T/C (second compound 0.0316 µM, first compound 0.3 µM): 74.2%
viability, T/C (second compound 0.0316 µM, first compound 0.949 µM): 66.8%
viability, T/C (second compound 0.0316 µM, first compound 3 µM): 42.2%
viability, T/C (second compound 0.1 µM, first compound 0.00949 µM): 96.5%
viability, T/C (second compound 0.1 µM, first compound 0.03 µM): 84.3%
viability, T/C (second compound 0.1 µM, first compound 0.0949 µM): 101%
viability, T/C (second compound 0.1 µM, first compound 0.3 µM): 80.8%
viability, T/C (second compound 0.1 µM, first compound 0.949 µM): 59.8%
viability, T/C (second compound 0.1 µM, first compound 3 µM): 37.6%
viability, T/C (second compound 0.316 µM, first compound 0.00949 µM): 95.8%
viability, T/C (second compound 0.316 µM, first compound 0.03 µM): 98.6%
viability, T/C (second compound 0.316 µM, first compound 0.0949 µM): 81.3%
viability, T/C (second compound 0.316 µM, first compound 0.3 µM): 86.1%
viability, T/C (second compound 0.316 µM, first compound 0.949 µM): 59.2%
viability, T/C (second compound 0.316 µM, first compound 3 µM): 38.6%
viability, T/C (second compound 1 µM, first compound 0.00949 µM): 97.4%
viability, T/C (second compound 1 µM, first compound 0.03 µM): 106%
viability, T/C (second compound 1 µM, first compound 0.0949 µM): 87.7%
viability, T/C (second compound 1 µM, first compound 0.3 µM): 80.3%
viability, T/C (second compound 1 µM, first compound 0.949 µM): 56.4%
viability, T/C (second compound 1 µM, first compound 3 µM): 31.5%
viability, T/C (second compound 3.16 µM, first compound 0.00949 µM): 91%
viability, T/C (second compound 3.16 µM, first compound 0.03 µM): 91.3%
viability, T/C (second compound 3.16 µM, first compound 0.0949 µM): 80.7%
viability, T/C (second compound 3.16 µM, first compound 0.3 µM): 67.2%
viability, T/C (second compound 3.16 µM, first compound 0.949 µM): 43.2%
viability, T/C (second compound 3.16 µM, first compound 3 µM): 27.4%
viability, T/C (second compound 10 µM, first compound 0.00949 µM): 101%
viability, T/C (second compound 10 µM, first compound 0.03 µM): 80.6%
viability, T/C (second compound 10 µM, first compound 0.0949 µM): 74.3%
viability, T/C (second compound 10 µM, first compound 0.3 µM): 47.4%
viability, T/C (second compound 10 µM, first compound 0.949 µM): 31.7%
viability, T/C (second compound 10 µM, first compound 3 µM): 18.1%
